Entries after “also recorded” stand apart in the source; their conditions may differ.
Columns and labels:
CCR3/2 chimera = biological target: T1, CCR3/2 chimera (Homo sapiens, UniProt P51677); assay: 125I-eotaxin binding assay on CHO CCR3/2 clone 5.5 cells
T1 construct: The total length of the CCR3/2 chimeric molecule described herein is 356 amino acids; CCR2B cytoplasmic tail (fusion partner replacing the CCR3 C terminus); expressed in transfected cells
T1 sequence (P51677 with tags, fused parts or gaps): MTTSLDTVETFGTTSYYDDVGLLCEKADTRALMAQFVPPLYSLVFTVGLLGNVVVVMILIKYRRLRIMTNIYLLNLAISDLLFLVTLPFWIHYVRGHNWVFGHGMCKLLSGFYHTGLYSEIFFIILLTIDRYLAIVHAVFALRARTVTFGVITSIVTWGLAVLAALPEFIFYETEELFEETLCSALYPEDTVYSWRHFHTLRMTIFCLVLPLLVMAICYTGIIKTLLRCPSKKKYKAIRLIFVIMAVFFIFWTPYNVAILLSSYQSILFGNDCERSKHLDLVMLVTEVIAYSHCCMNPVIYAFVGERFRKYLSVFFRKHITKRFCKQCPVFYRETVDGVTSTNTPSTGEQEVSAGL
Procedure: (§1) In order to compare the ability of cells expressing chimeric human CCR3/2 molecules to that of cells expressing endogenous human CCR3 to bind eotaxin, a binding assay was performed. Depending upon the questions being asked, the cells in question were either human or mouse eosinophils, CHO-K1 cells expressing recombinant CCR3 or CCR3/2, parental CHO-K1 cells or other cell types. All assay steps were conducted at room temperature. Multiscreen assay plates (#MABVN1250, Millipore Inc., Marlborough, Mass.) were incubated with 100 μl/well of blocking solution (7.5 μg/ml protamine in PBS) to block non-specific binding. After 20 minutes, the blocking solution was removed and replaced with 100 μl of binding buffer, (RPMI 1640 (Life Technologies, Grand Island, N.Y.) containing 0.1% bovine serum albumin and 20 mM HEPES buffer) and incubated for at least an additional 10 minutes.
(§2) When ready to use plate(s), the following procedure was employed. Remove the binding buffer and add the following to the well types indicated:
(§3) to TOTAL binding wells add 50 μl of binding buffer;
(§4) to NON-SPECIFIC binding wells add 50 μl of unlabeled human eotaxin to 100 nM and 1000 nM final concentration (recombinant human eotaxin—#320-EO/CF, R&D Systems, Minneapolis, Minn.) in 50 μl binding buffer; […]
(§5) Binding data were analyzed using Microsoft EXCEL and then graphed using GRAPHPAD PRISMT™. […]

CCR3 = biological target: T2, CCR3 (Homo sapiens, UniProt P51677); assay: 125I-eotaxin binding assay on human eosinophils; conditions: native human eosinophils; 0.15 nM 125I-labeled human eotaxin; room temperature
T2 construct: cells expressing endogenous human CCR3; endogenous in cells; host or cells: native human eosinophils
T2 sequence (P51677 1-355): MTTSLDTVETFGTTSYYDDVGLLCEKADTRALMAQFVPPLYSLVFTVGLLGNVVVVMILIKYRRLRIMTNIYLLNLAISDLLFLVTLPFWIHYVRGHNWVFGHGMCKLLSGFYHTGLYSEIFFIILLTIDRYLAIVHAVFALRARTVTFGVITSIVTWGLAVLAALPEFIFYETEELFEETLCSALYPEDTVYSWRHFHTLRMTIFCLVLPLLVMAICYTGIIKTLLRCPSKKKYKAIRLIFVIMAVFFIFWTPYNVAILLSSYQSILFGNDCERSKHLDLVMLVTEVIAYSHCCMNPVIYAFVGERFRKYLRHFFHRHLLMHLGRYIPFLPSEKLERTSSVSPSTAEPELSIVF
Procedure: as §1, §2, §3, §4, §5

chimeric CCR3/2 receptor = biological target: T3, chimeric CCR3/2 receptor (Homo sapiens, UniProt P51677); assay: phospho-ERK western blot after eotaxin stimulation of CHO CCR3/2 clone 5.5 cells; type: cell-based; conditions: nanomolar eotaxin
T3 construct: The total length of the CCR3/2 chimeric molecule described herein is 356 amino acids; CCR2B cytoplasmic tail (fusion partner replacing the CCR3 C terminus); expressed in transfected cells
T3 sequence (P51677 with tags, fused parts or gaps): T1 sequence (P51677 with tags, fused parts or gaps)
Description: Part of the downstream signalling cascade involves the activity of kinases (proteins that add phosphate groups to specific residues in cellular proteins, thereby causing them to take on new activities and cellular roles). In the present Example, the phosphorylation of Erk (a member of a protein kinase signalling cascade) is considered to be an indication that binding of eotaxin at the cell surface is recognized by the cell signalling machinery that lies within the cytoplasm and nucleus.
Thus, the present invention further provides that a chimeric chemokine receptor (e.g., the chimeric CCR3/2 receptor) when expressed in cells is capable of downstream signalling when binding to its cognate ligand (e.g., eotaxin). Such downstream signalling involves the MAP kinase pathway, more specifically, the phosphorylation of Erk1 and Erk2 subsequent to binding of eotaxin by either CCR3 or CCR3/2.
Analysis of cell stimulation for phospho-ERK analysis by western blotting was done as previously described (Scherle et al., (1998) J. Immunol. 161(10):5681-86) with the exception that cells were specifically stimulated by exposure to eotaxin (nanomolar exposures to eotaxin listed on the bottoms of FIGS. 7A and 7B) instead of the more generic stimulant lipopolysaccharide as described in Sherle et al. (Scherle et al., (1998) J. Immunol. 161(10):5681-86).

| Compound | competition with labeled eotaxin for binding (drug inhibition curve) (CCR3/2 chimera; CHO CCR3/2 clone 5.5, 0.15 nM 125I-labeled human eotaxin, room temperature) | competition with labeled eotaxin for binding (drug inhibition curve) (CCR3) | Erk phosphorylation (downstream signalling) on exposure to eotaxin (chimeric CCR3/2 receptor) | eotaxin binding (CCR3/2 chimera; CHO cells expressing human CCR3/2) |
| --- | --- | --- | --- | --- |
| C[C@@H](NC(=O)Nc1cccc(-c2nnnn2C)c1)[C@@H](O)CN1CCC[C@@H](Cc2ccc(F)cc2)C1 [Compound 1, N-{(1R,2S)-3-[(3S)-3-(4-fluorobenzyl)-1-piperidinyl]-2-hydroxy-1-methylpropyl}-N′-[3-(1-methyl-1H-tetraazol-5-yl)phenyl]urea] | comparable; also recorded: compete with eotaxin for binding | comparable |  |  |
| eotaxin: recombinant human eotaxin, chemokine peptide ligand of CCR3 (R&D Systems #320-EO/CF; 125I-labeled form from Perkin Elmer) |  |  | able to transmit a signal | high levels of specific eotaxin binding; also recorded: high affinity |

— US7259000B2, “Polynucleotides encoding chimeric chemokine receptors” (Bristol-Myers Squibb Company, priority 2003, dated 2007)
